Measurements as given in US20260297542A1, “HERBICIDE RESISTANT PLANTS” (SYNGENTA CROP PROTECTION AG, priority 2023, published 2026).
Changes are numbered by the printed parent chain.

Assays:
[1] = target: T1, His-TEV-AtPP01 ΔcTP V030 (SEQ ID NO: 374) (Arabidopsis thaliana, UniProt P55826, S305L/Y426V); test: activity rate of PPO variant in in vitro assay; type: biochemical; settings: role: substrate; 1 uM protoporphyrinogen IX; no inhibitor
T1 construct: with cTPs removed; made in house; host or cells: E. coli BL21 (DE3), His GraviTrap, partially purified
T1 sequence (P55826 with tags, fused parts or gaps S305L/Y426V): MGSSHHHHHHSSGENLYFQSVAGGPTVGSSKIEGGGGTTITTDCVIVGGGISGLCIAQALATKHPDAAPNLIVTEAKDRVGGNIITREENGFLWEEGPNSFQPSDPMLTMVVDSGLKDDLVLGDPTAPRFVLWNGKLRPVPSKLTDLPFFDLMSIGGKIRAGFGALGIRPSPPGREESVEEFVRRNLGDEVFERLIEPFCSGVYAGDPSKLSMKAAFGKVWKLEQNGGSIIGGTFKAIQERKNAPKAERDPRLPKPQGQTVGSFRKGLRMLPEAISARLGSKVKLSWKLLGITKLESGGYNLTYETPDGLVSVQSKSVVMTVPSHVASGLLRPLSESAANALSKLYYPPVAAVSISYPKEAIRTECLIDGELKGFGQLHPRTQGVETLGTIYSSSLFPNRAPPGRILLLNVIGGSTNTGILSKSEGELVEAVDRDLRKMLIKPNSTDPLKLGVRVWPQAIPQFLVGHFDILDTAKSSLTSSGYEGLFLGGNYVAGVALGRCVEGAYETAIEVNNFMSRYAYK
Source text: (§1) A pET24 plasmid containing a DNA sequence encoding variants of AtPPO1 derived from Arabidopsis thaliana with cTPs removed and both a 6×His tag and TEV protease cleavage tag added at the N-terminus, codon-optimised for expression in E. coli, and under control of a T7 promoter, was synthesised by Twist Bioscience. The following variants were synthesised: WT AtPPO1 (SEQ ID NO: 370), AtPPO1 L479M (SEQ ID NO: 371), AtPPO1 L479N (SEQ ID NO: 372), AtPPO1 S305L Y426V (SEQ ID NO: 374) and AtPPO1 S305L Y426V L479M (SEQ ID NO: 373). This plasmid was expressed in E. coli BL21 (DE3) with 50 μg/mL kanamycin selection. 10 mL of overnight cultures grown at 37° C. were used to inoculate 1 L AIM (AIM-Terrific Broth Base including Trace elements, Formedium) in 2 L shake flasks. Cultures were grown at 37° C., 200 rpm for 3 hours and then overnight at 26° C. Cells were harvested centrifugation. 5-15 g of cell pellet was lysed in and resuspended in ratio of 1:1.5 in lysis buffer (20 mM Tris pH8, 500 mM sodium chloride, 10% glycerol, 1× complete Protease EDTA-free Inhibitor Tablet (Roche), 10 mM imidazole). The resuspension was sonicated at 75% using 10 cycles of 30 seconds, 40 seconds off. After sonication Triton X-100 was added to the lysates at a final concentration of 0.5%. The lysates were centrifuged at 20,000 rpm for 25 min at 4° C. Cleared lysates were loaded on His GraviTrap (Cytiva) columns, washed with 20 mL of lysis buffer and eluted in elution buffer (20 mM Tris pH8, 500 mM sodium chloride, 10% glycerol, 200 mM imidazole, 0.03% (v/v) Triton X-100). The eluate was desalted on a PD10 column and 2.5-3.2 mL was collected. Protein concentration was measured and calculated using the absorbance at 280 nm. Extracts were diluted 1 in 4 and 10 uL was analysed by SDS PAGE.
(§2) Partially purified Protoporphyrinogen Oxidase enzymes were assayed for activity using fluorescence adapted from the method of Shepherd & Dailey (Anal Biochem. 2005 344(1) 115-121). The assay was performed in black 384 well plates with a clear bottom and the total volume of the reaction mixture was 91 ul. The final assay mixture contained 100 mM K2HPO4 pH7.2, 1 mM Na2EDTA, 5 mM DTT, 20% glycerol (v/v), 0.05% Tween 20 (v/v), 1.1% DMSO (v/v), 1 uM protoporphyrinogen IX and 1.5 nM enzyme. Compounds were dissolved in DMSO at 1 mM and a 4-fold serial dilution carried out to give 8 rates. 1 ul was added to the assay mixture. This gave final compound concentrations of 11, 2.7, 0.69, 0.17, 0.04, 0.01, 0.002, 0.0007 uM. Enzyme and inhibitor were preincubated for 5 minutes prior to starting the reaction with the addition of the substrate. […] IC50s were calculated using GraphPad Prism 7.05 nonlinear regression (Table 6). Each compound was tested in duplicate.

[2] = target: T2, His-TEV-AtPP01 ΔcTP (SEQ ID NO: 370) (Arabidopsis thaliana, UniProt P55826); test: activity rate of PPO variant in in vitro assay; type: biochemical; settings: role: substrate; 1 uM protoporphyrinogen IX; no inhibitor
T2 construct: with cTPs removed; made in house; host or cells: E. coli BL21 (DE3), His GraviTrap, partially purified
T2 sequence (P55826 with tags, fused parts or gaps): T1 sequence (P55826 with tags, fused parts or gaps S305L/Y426V) with L290S, V411Y
Source text: as §1, §2

SMILES: C=Cc1c2[nH]c(c1C)Cc1[nH]c(c(CCC(=O)O)c1C)Cc1[nH]c(c(C)c1CCC(=O)O)Cc1[nH]c(c(C)c1C=C)C2 [protoporphyrinogen IX]
- Rate [1]: 5.3 rfu second^−1 pmole^−1
- Rate [2]: 5.1 rfu second^−1 pmole^−1
